Experimental data as given in ChEMBL document CHEMBL1201862, “PubChem BioAssay data set” (2004).
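Protocol summary: plate cells (96-well), add compound at 5 concentrations, incubate 48 h, interpolate endpoints linearly. At the GI50, growth is halved.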 Calls of active or inactive are those of the source. Cut-off read from the data, not from the text of the source: active = GI50 up to about 1.1 µM and inactive = higher.

Assays:
Assay in all cases: inhibition of tumour cell growth, NCI panel, 48 h
ACHN = test system: ACHN
IGROV-1 = test system: IGROV-1
SF-539 = test system: SF-539
NCI/ADR-RES = test system: NCI/ADR-RES
SR = test system: SR
HOP-62 = test system: HOP-62
MCF7 = test system: MCF7
Hs-578T = test system: Hs-578T
MDA-MB-435 = test system: MDA-MB-435
SK-MEL-28 = test system: SK-MEL-28
T47D = test system: T47D
MDA-N = test system: MDA-N
SW-620 = test system: SW-620
SK-OV-3 = test system: SK-OV-3
UACC-257 = test system: UACC-257
CCRF-CEM = test system: CCRF-CEM
LOX IMVI = test system: LOX IMVI
SF-268 = test system: SF-268
NCI-H23 = test system: NCI-H23
786-0 = test system: 786-0
Malme-3M = test system: Malme-3M
HT-29 = test system: HT-29
HL-60 = test system: HL-60
K562 = test system: K562
OVCAR-3 = test system: OVCAR-3
U-251 = test system: U-251
SNB-75 = test system: SNB-75
SN12C = test system: SN12C
HCT-116 = test system: HCT-116
M14 = test system: M14
HOP-92 = test system: HOP-92
SK-MEL-5 = test system: SK-MEL-5
UACC-62 = test system: UACC-62
SF-295 = test system: SF-295
OVCAR-5 = test system: OVCAR-5
A549 = test system: A549
BT-549 = test system: BT-549
SNB-19 = test system: SNB-19
PC-3 = test system: PC-3
RPMI-8226 = test system: RPMI-8226
OVCAR-8 = test system: OVCAR-8
OVCAR-4 = test system: OVCAR-4
HCC 2998 = test system: HCC 2998
COLO 205 = test system: COLO 205
CAKI-1 = test system: CAKI-1
HCT-15 = test system: HCT-15
DU-145 = test system: DU-145
KM12 = test system: KM12
NCI-H522 = test system: NCI-H522
MDA-MB-231 = test system: MDA-MB-231
TK-10 = test system: TK-10
RXF 393 = test system: RXF 393
EKVX = test system: EKVX
NCI-H460 = test system: NCI-H460
UO-31 = test system: UO-31
MOLT-4 = test system: MOLT-4
NCI-H226 = test system: NCI-H226

Measured: GI50

CCCC(=O)Nc1cc2c3c(c1)CCCN3CCC2
inactive: ACHN > 10 µM | IGROV-1 > 10 µM | SF-539 > 10 µM | NCI/ADR-RES > 10 µM | SR > 10 µM | HOP-62 > 10 µM | MCF7 6.08 µM | Hs-578T > 10 µM | MDA-MB-435 > 10 µM | SK-MEL-28 > 10 µM | T47D 6.01 µM | MDA-N > 10 µM | SW-620 > 10 µM | SK-OV-3 9.66 µM | UACC-257 > 10 µM | CCRF-CEM > 10 µM | LOX IMVI > 10 µM | SF-268 > 10 µM | NCI-H23 3.77 µM | 786-0 > 10 µM | Malme-3M > 10 µM | HT-29 > 10 µM | HL-60 > 10 µM | K562 > 10 µM | OVCAR-3 > 10 µM | U-251 > 10 µM | SNB-75 > 10 µM | SN12C > 10 µM | HCT-116 > 10 µM | M14 > 10 µM | HOP-92 > 10 µM | SK-MEL-5 > 10 µM | UACC-62 > 10 µM | SF-295 > 10 µM | OVCAR-5 > 10 µM | A549 > 10 µM | BT-549 > 10 µM | SNB-19 > 10 µM | PC-3 > 10 µM | RPMI-8226 > 10 µM | OVCAR-8 > 10 µM | OVCAR-4 > 10 µM | HCC 2998 > 10 µM | COLO 205 > 10 µM | CAKI-1 > 10 µM | DU-145 > 10 µM | KM12 > 10 µM | NCI-H522 > 10 µM | MDA-MB-231 > 10 µM | TK-10 > 10 µM
> 10 µM: HCT-15

COC(=O)C(Cc1ccccc1)NC(=O)CCCNC(=O)OCc1ccccc1 (stereo unspecified)
active: RXF 393 < 0.01 µM
> 100 µM: HCT-15
inactive: ACHN 33 µM | IGROV-1 > 100 µM | NCI/ADR-RES > 100 µM | SR 44.7 µM | HOP-62 > 100 µM | MCF7 > 100 µM | Hs-578T > 100 µM | MDA-MB-435 86.1 µM | SK-MEL-28 48.2 µM | T47D 71.3 µM | MDA-N 63.7 µM | SW-620 > 100 µM | EKVX > 100 µM | SK-OV-3 > 100 µM | CCRF-CEM 41 µM | LOX IMVI > 100 µM | SF-268 > 100 µM | NCI-H23 > 100 µM | 786-0 > 100 µM | Malme-3M 7.33 µM | HT-29 > 100 µM | HL-60 33.7 µM | NCI-H460 > 100 µM | K562 > 100 µM | UO-31 > 100 µM | OVCAR-3 > 100 µM | U-251 > 100 µM | SNB-75 > 100 µM | SN12C > 100 µM | HCT-116 > 100 µM | M14 17.1 µM | HOP-92 99.1 µM | SK-MEL-5 22.4 µM | UACC-62 49.9 µM | MOLT-4 29.2 µM | SF-295 > 100 µM | NCI-H226 > 100 µM | OVCAR-5 > 100 µM | A549 > 100 µM | BT-549 > 100 µM | SNB-19 > 100 µM | PC-3 > 100 µM | RPMI-8226 87.3 µM | OVCAR-8 > 100 µM | OVCAR-4 > 100 µM | HCC 2998 > 100 µM | COLO 205 77.4 µM | CAKI-1 > 100 µM | DU-145 > 100 µM | KM12 > 100 µM | NCI-H522 > 100 µM | MDA-MB-231 > 100 µM | TK-10 > 100 µM
